Measured values as given in patent publication EP3327020A1, “CITRATE SALTS OF A JANUS KINASE (JAK) INHIBITOR” (SANDOZ AG, priority 2016, dated 2018).
Converted amounts (≈) assume the structure as drawn. “Also recorded” adds a separate entry of the source.

Assay: Solubility in 0.1N aqueous HCl (saturated solution stirred at 37 °C for 1 hour, filtered, baricitinib concentration of the mother liquor determined by HPLC)
Assay type: physicochemical
Details: for solubility at 1 h: simulated gastric fluid, thermodynamic from solid, read-out: Solubility in 0.1N aqueous HCl after 1 hour
Description: The solubilities of baricitinib free base, phosphate, trifluoroacetate, monocitrate and dicitrate in 0.1N HCl have been determined. […] Thereafter, the solid was removed by filtration and the baricitinib concentration of the mother liquor was determined by HPLC.
The absolute solubility values were calculated from a calibration curve generated with solutions of known baricitinib concentrations and are listed in Table 5. Table 5: Comparative solubility data in 0.1N aqueous hydrochloric acid

[1] = 0.1N aqueous HCl, 37 °C, 1 hour, baricitinib concentration by HPLC

Structure (SMILES) | Solubility in 0.1N aqueous HCl after 1 hour [1] | solubility compared to the free base form (in words) (0.1N aqueous hydrochloric acid, listed as phosphate salt of baricitinib) | solubility relative to the solubility of baricitinib free base (0.1N aqueous hydrochloric acid) | solubility at 1 h [1]
CCS(=O)(=O)N1CC(CC#N)(n2cc(-c3ncnc4[nH]ccc34)cn2)C1.O=P(O)(O)O [Phosphate salt of WO 2009/114512 A1] | 26 mg/mL | only a slightly increased solubility; also recorded: only slightly improved solubility values |  | 
CCS(=O)(=O)N1CC(CC#N)(n2cc(-c3ncnc4[nH]ccc34)cn2)C1.O=C(O)CC(O)(CC(=O)O)C(=O)O.O=C(O)CC(O)(CC(=O)O)C(=O)O [{1-(Ethylsulfonyl)-3-[4-(7H-pyrrolo[2,3-d]pyrimidin-4-yl)-1H-pyrazol-1-yl]azetidin-3-yl}acetonitrile dicitrate] |  |  | more than 2 fold | > 50 mg/mL
CCS(=O)(=O)N1CC(CC#N)(n2cc(-c3ncnc4[nH]ccc34)cn2)C1.O=C(O)CC(O)(CC(=O)O)C(=O)O [{1-(Ethylsulfonyl)-3-[4-(7H-pyrrolo[2,3-d]pyrimidin-4-yl)-1H-pyrazol-1-yl]azetidin-3-yl}acetonitrile monocitrate] |  |  | more than 2 fold | > 50 mg/mL
CCS(=O)(=O)N1CC(CC#N)(n2cc(-c3ncnc4[nH]ccc34)cn2)C1 [{1-(Ethylsulfonyl)-3-[4-(7H-pyrrolo[2,3-d]pyrimidin-4-yl)-1H-pyrazol-1-yl]azetidin-3-yl}acetonitrile] |  |  |  | 25 mg/mL (≈ 67.3 mM)
